Assay [1] relates to T1, Class C beta-lactamase, E. coli M50 (CMY/DHA).
T1 construct: no borders, tags or purification printed
It counts as biochemical. The settings on record: read-out: Beta-lactamase enzyme inhibition IC50. The procedure:
(§1) Determination of enzyme inhibition activity: Concentration of the inhibitor required to inhibit 50% of enzymatic activity was measured by adding a chromogenic substrate, Nitrocefin (100 uM, 5 min) to the preincubated mixture of crude enzyme and the agents (37° C., 10 min). Absorbance was measured at 485 nm by UV-spectrophotometer. The IC50 was calculated by plotting absorbance against concentration through Sigmoidal dose response curve using Graph Pad software.
(§2) The enzyme inhibition was expressed as IC50.

Assay [2] deals with K. pneumoniae H521 (KPC, SHV, TEM). As to the kind of experiment: Antibacterial activity, MIC by agar dilution (CLSI). It counts as cell-based. The procedure:
(§3) The biological activity of representative compounds according to the invention against various bacterial strains was investigated. In a typical study, overnight grown bacterial cultures were diluted appropriately and inoculated on the agar media containing doubling dilutions of the test compounds. Observations for growth or no growth was performed after 16-20 hours of incubation at 35±2° C. in the ambient air. The overall procedure was performed as per Clinical and Laboratory Standards Institute (CLSI) recommendations, (Clinical and Laboratory Standards Institute (CLSI), Performance Standards for Antimicrobial Susceptibility Testing, 20th Informational Supplement, M07-A9, Volume 32, No. 2, 2012). Molten Mueller Hinton Agar (BD, USA) containing serial dilutions of each antibacterial agent were poured on to the plates and allowed to solidify. Appropriate suspensions from the freshly grown cultures were prepared in normal saline so that about 10^4 CFU/spot of the organism was delivered on to the drug containing agar plates using automated multipoint inoculator (Mast, UK). The plates were incubated in Biochemical oxygen demand (BOD) incubator at 37° C. for 18 hours and then examined for growth.
(§4) The strains selected for study included E. coli NCTC 13353 producing CTX-M15 and OXA-1 beta-lactamase enzymes; K. pneumoniae H521 producing KPC, SHV, TEM beta-lactamase enzymes; and K. pneumoniae S48 producing NDM, SHV, TEM beta-lactamase enzymes. The activities are expressed as Minimum Inhibitory Concentrations (MICs) (mcg/ml).
On the technique in general: In agar dilution, organisms are placed on agar that contains the substance at set levels.

In assay [3] the target is T2, Class D beta-lactamase, A. baumannii NCTC 13301 (OXA 23) (Acinetobacter baumannii, UniProt Q9L4P2).
T2 construct: preincubated mixture of crude enzyme and the agents; endogenous in cells; host or cells: A. baumannii NCTC 13301
T2 sequence (Q9L4P2 18-273): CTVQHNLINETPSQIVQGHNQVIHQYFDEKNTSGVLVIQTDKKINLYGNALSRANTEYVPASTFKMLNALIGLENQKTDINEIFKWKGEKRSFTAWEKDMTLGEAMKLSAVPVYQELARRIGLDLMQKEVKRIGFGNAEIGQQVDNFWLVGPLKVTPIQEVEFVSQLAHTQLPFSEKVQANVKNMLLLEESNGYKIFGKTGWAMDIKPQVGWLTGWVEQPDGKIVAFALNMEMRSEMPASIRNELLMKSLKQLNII
Nature of the assay: Beta-lactamase enzyme inhibition (nitrocefin, crude enzyme). The assay is classed as biochemical. The procedure:
as §1, §2

Assay [4] deals with E. coli NCTC 13353 (CTX-M15, OXA-1). As to the kind of experiment: Antibacterial activity, MIC by agar dilution (CLSI). The assay is classed as cell-based. As for the experimental part:
as §3
Table 2 details the antibacterial activity of representative compounds according to invention, against various Multi Drug Resistant (MDR) Gram-negative bacterial strains. The strains selected for study included E. coli NCTC 13353 producing CTX-M15 and OXA-1 beta-lactamase enzymes; K. pneumoniae H521 producing KPC, SHV, TEM beta-lactamase enzymes; and K. pneumoniae S48 producing NDM, SHV, TEM beta-lactamase enzymes. The activities are expressed as Minimum Inhibitory Concentrations (MICs) (mcg/ml).

For assay [5], the system named is K. pneomoniae S48 (NDM, SHV, TEM). The assay is described as above. It counts as cell-based, K. pneumoniae. As for the experimental part: as §3, §4
Assay [6] deals with T3, Class A beta-lactamase, K. pneumoniae ATCC 700603 (SHV 18) (Klebsiella pneumoniae, UniProt P0AD64, E235K/G234A/R39S).
T3 construct: preincubated mixture of crude enzyme and the agents; endogenous in cells; host or cells: K. pneumoniae ATCC 700603
T3 sequence (P0AD64 22-286 R39S/G234A/E235K): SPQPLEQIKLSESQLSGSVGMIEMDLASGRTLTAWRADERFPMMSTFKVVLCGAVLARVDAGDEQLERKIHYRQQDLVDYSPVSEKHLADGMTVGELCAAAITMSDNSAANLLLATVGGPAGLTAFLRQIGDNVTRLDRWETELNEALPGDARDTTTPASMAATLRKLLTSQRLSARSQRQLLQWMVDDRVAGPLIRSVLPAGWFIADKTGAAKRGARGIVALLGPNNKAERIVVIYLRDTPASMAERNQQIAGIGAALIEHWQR
As to the kind of experiment: biochemical. The procedure:
as §1, §2

[7] abbreviates: Class D A. baumannii NCTC 13301 (OXA 23), read-out: Beta-lactamase enzyme inhibition IC50.
Where [8] appears, read: Table 2, E. Coli NCTC 13353 (CTX-M15, OXA-1).
The mark [9] stands for this setting: Table 2, K. pneomoniae S48 (NDM, SHV, TEM).
[10] abbreviates: Klebsiella pneumoniae, 18 h, Table 2, K. pneumoniae H521 (KPC, SHV, TEM), read-out: MIC.
The mark [11] stands for this setting: Escherichia coli, NCTC13353, 18 h, Table 2, E. Coli NCTC 13353 (CTX-M15, OXA-1), read-out: MIC.
The mark [12] stands for this setting: Klebsiella pneumoniae, 18 h, Table 2, K. pneomoniae S48 (NDM, SHV, TEM), read-out: MIC.

Converted amounts (≈) assume the structure as drawn. Counter-ions that a name gives are not always drawn. Like-named read-outs stand apart in the source and are kept apart here.

Broadly, the IC50 is the concentration that inhibits the measured activity by half. As a reminder, the MIC is the smallest concentration in the dilution series that meets the test's criterion for growth inhibition.

Consider `Nc1ccc(CC(=O)NNC(=O)[C@@H]2CC[C@@H]3CN2C(=O)N3OS(=O)(=O)O)c(F)c1` [Example 17, (2S,5R)-sulfuric acid mono-[2-(N′-(4-amino-2-fluorophenyl-acetyl)-hydrazinocarbonyl)-7-oxo-1,6-diaza-bicyclo[3.2.1]oct-6-yl]ester], for which the IC50 in assay [1] amounted to 14 nM; in assay [3] (setting [7]) it was 194 nM. The MIC was found to be 4 µg/mL (≈ 9.27 µM) in assay [2] (Klebsiella pneumoniae, Table 2, K. pneumoniae H521 (KPC, SHV, TEM), read-out: MIC); 1 µg/mL (≈ 2.32 µM) in assay [4] (Escherichia coli, NCTC13353, Table 2, E. Coli NCTC 13353 (CTX-M15, OXA-1), read-out: MIC); 1 µg/mL (≈ 2.32 µM) in assay [5] (Klebsiella pneumoniae, Table 2, K. pneomoniae S48 (NDM, SHV, TEM), read-out: MIC).

On to “sodium salt of (2S,5R)-succinic acid tert-butyl ester 4-{2-oxo-2-[N′-(7-oxo-6-sulphooxy-1,6-diaza-bicyclo[3.2.1]octane-2-carbonyl)-hydrazino]ethyl}-phenyl ester [Example 27]”, for which the IC50 came out at 14 nM in assay [1] and 498 nM in assay [3] (setting [7]). Moreover, the MIC in assay [4] (setting [8]) is 2 µg/mL; in assay [5] (setting [9]) it was 8 µg/mL.

Consider `O=C(O)[C@H]1/C(=C/CO)O[C@@H]2CC(=O)N21` [Clavulanic acid, clavulanic acid, reference compound], for which the IC50 in assay [1] is over 10000 nM.

Turning to `O=C(Cc1ccc(OC(=O)NC2CCCCC2)cc1)NNC(=O)[C@@H]1CC[C@@H]2CN1C(=O)N2OS(=O)(=O)O` [Example 28, sodium salt of (2S,5R)-cyclohexyl-carbamic acid 4-{2-oxo-2-[N′-(7-oxo-6-sulphooxy-1,6-diaza-bicyclo[3.2.1]octane-2-carbonyl)-hydrazino]ethyl}-phenyl ester], the MIC stood at 32 µg/mL in assay [2] (Klebsiella pneumoniae, 18 h); 8 µg/mL in assay [4] (Escherichia coli, NCTC13353, 18 h); 16 µg/mL in assay [5] (Klebsiella pneumoniae, 18 h). Besides, the IC50 was determined as 243 nM in assay [3] and 8 nM in assay [6].

Turning to `O=C(CCc1ccccc1)NNC(=O)[C@@H]1CC[C@@H]2CN1C(=O)N2OS(=O)(=O)O` [Example 5], the results for the MIC in assay [2] (setting [10]), in assay [4] (setting [11]) and in assay [5] (setting [12]) were over 32 µg/mL, 8 µg/mL (≈ 19.4 µM) and 8 µg/mL (≈ 19.4 µM), respectively. For the same molecule, the figures for the IC50 in assay [3] (setting [7]) and in assay [6] were 600 nM and 9 nM, respectively.

In the case of `CNCCOc1ccccc1CC(=O)NNC(=O)[C@@H]1CC[C@@H]2CN1C(=O)N2OS(=O)(=O)O` [Example 36, (2S,5R)-sulfuric acid mono-[2-(N′-{2-[2-(2-N-methylamino-ethoxy)-phenyl]-acetyl}-hydrazinocarbonyl)-7-oxo-1,6-diaza-bicyclo[3.2.1]oct-6-yl]ester], the figures for the minimal inhibitory concentration (MIC) in assay [2] (setting [10]), in assay [4] (setting [11]) and in assay [5] (setting [12]) were 2 µg/mL (≈ 4.24 µM), 1 µg/mL (≈ 2.12 µM) and 1 µg/mL (≈ 2.12 µM), respectively. In addition, the IC50 in assay [3] (setting [7]) was 2170 nM; in assay [6], 71 nM.

With “sodium salt of (2S,5R)-sulfuric acid mono-[2-(N′-(3,3-diphenyl-propionyl)-hydrazinocarbonyl)-7-oxo-1,6-diaza-bicyclo[3.2.1]oct-6-yl]ester [Example 7]”, the half-inhibitory concentration (IC50) in assay [1] worked out at 14 nM; in assay [3] (setting [7]), 89 nM. In addition, the MIC is over 32 µg/mL in assay [2] (Table 2, K. pneumoniae H521 (KPC, SHV, TEM)); over 32 µg/mL in assay [4] (setting [8]); over 32 µg/mL in assay [5] (setting [9]).

As for `CNCCOc1cccc(CC(=O)NNC(=O)[C@@H]2CC[C@@H]3CN2C(=O)N3OS(=O)(=O)O)c1` [Example 37, (2S,5R)-sulfuric acid mono-[2-(N′-{2-[3-(2-N-methylamino-ethoxy)-phenyl]-acetyl}-hydrazinocarbonyl)-7-oxo-1,6-diaza-bicyclo[3.2.1]oct-6-yl]ester], the figures for the MIC in assay [2] (setting [10]), in assay [4] (setting [11]) and in assay [5] (setting [12]) were 1 µg/mL (≈ 2.12 µM), 0.5 µg/mL (≈ 1.06 µM) and 0.5 µg/mL (≈ 1.06 µM), respectively. Moreover, the values for the IC50 in assay [3] (setting [7]) and in assay [6] were 938 nM and 36 nM, respectively.

On to `O=C(Cc1ccc(O)cc1F)NNC(=O)[C@@H]1CC[C@@H]2CN1C(=O)N2OS(=O)(=O)O` [Example 18, sodium salt of (2S,5R)-sulfuric acid mono-[2-(N′-(2-fluoro-4-hydroxyphenyl-acetyl)-hydrazinocarbonyl)-7-oxo-1,6-diaza-bicyclo[3.2.1]oct-6-yl]ester], for which the MIC in assay [2] (setting [10]) is 2 µg/mL; in assay [4] (setting [11]), 0.5 µg/mL; in assay [5] (setting [12]), 0.5 µg/mL. Further, the IC50 in assay [3] (setting [7]) was 146 nM; in assay [6], 154 nM.

The values are drawn from patent US9822115B2, “Nitrogen containing compounds and their use as antibacterial agents” (WOCKHARDT LIMITED, priority 2014, dated 2017).
